35 compounds from patent US6376670B1, “Quinoline-indole antimicrobial agents, uses and compositions related thereto” (Sepracor Inc., priority 1997, dated 2002) can be followed below.

Broadly, the MIC is the smallest concentration in the dilution series that meets the test's criterion for growth inhibition.

Holding throughout (experiment): Determination of MIC values (BHI broth, 96 well microtiter plate)
Holding throughout (format): cell-based

For one assay, the system named is Streptococcus pneumoniae. The conditions noted are these: Streptococcus pneumoniae, read-out: MIC S. pneu. In outline: (§1)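 MIC was read as the lowest drug concentration without observable growth after roughly 16 h at 37 °C under about 7–10% CO2. Wells held BHI broth with compound at final 25–0.39 μg/mL (1:100 from DMSO dilutions). Each well was inoculated at 10^5–10^6 cells/mL.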

The subject of assay [1] is methicillin-resistant Staphylococcus aureus (MRSA). The conditions noted are these: Staphylococcus aureus, MRSA, read-out: MIC MRSA. In outline:
as §1

Assay [2] deals with vancomycin-resistant Enterococcus spp. (VRE). The settings on record: Enterococcus, VRE, read-out: MIC VREF. In outline: as §1
The mark [3] stands for this setting: S. pneu, BHI broth, overnight 37° C.
[4] abbreviates: VREF, BHI broth, overnight 37° C.
The mark [5] stands for this setting: BHI broth, 37° C., about 16 hours.
The mark [6] stands for this setting: 16 h, BHI broth, 37° C., about 16 hours.

SMILES strings stand for the structures. Like-named read-outs stand apart in the source and are kept apart here.

Take `Cn1cc(-c2cc(C(=O)NCc3ccc(CN)cc3)c3cc(C#CCN4CCc5ccccc5C4)ccc3n2)c2cc(Br)ccc21` [Example 394]: the MIC was over 25 µg/mL in the assay on Streptococcus pneumoniae (setting [3]); over 25 µg/mL in assay [1] (BHI broth, overnight 37° C.); over 25 µg/mL in assay [2] (setting [4]).
With `CN1CCN(CC#Cc2ccc3nc(-c4cn(C)c5ccc(Br)cc45)cc(C(=O)NCc4ccc(CN)cc4)c3c2)CC1` [Example 395], the MIC in the assay with Streptococcus pneumoniae (setting [3]) was under 25 µg/mL; in assay [1] (BHI broth, overnight 37° C.), under 7 µg/mL; in assay [2] (setting [4]) it was under 25 µg/mL.
Turning to `Cn1cc(-c2cc(C(=O)NCc3ccc(CN)cc3)c3cc(C#CCN4CC=CC4)ccc3n2)c2cc(Br)ccc21` [Example 396], the MIC in the assay with Streptococcus pneumoniae (setting [3]) is over 25 µg/mL; in assay [1] (BHI broth, overnight 37° C.), over 25 µg/mL; in assay [2] (setting [4]) it was over 25 µg/mL.
Regarding `CN(CC#Cc1ccc2nc(-c3cn(C)c4ccc(Br)cc34)cc(C(=O)NCc3ccc(CN)cc3)c2c1)C1CCCCC1` [Example 397], the MIC in the assay with Streptococcus pneumoniae (setting [3]) was under 7 µg/mL; in assay [1] (BHI broth, overnight 37° C.), under 7 µg/mL; in assay [2] (setting [4]), under 7 µg/mL.
Turning to `CC(C)N(CC#Cc1ccc2nc(-c3cn(C)c4ccc(Br)cc34)cc(C(=O)NCc3ccc(CN)cc3)c2c1)C(C)C` [Example 398], the MIC was under 7 µg/mL in the assay on Streptococcus pneumoniae (setting [3]); under 7 µg/mL in assay [1] (BHI broth, overnight 37° C.); under 7 µg/mL in assay [2] (setting [4]).
Take `Cn1cc(-c2cc(C(=O)NCCN)c3cc(C#CCNCCc4ccccc4)ccc3n2)c2cc(Br)ccc21` [Example 399]: the MIC was under 7 µg/mL in the assay with Streptococcus pneumoniae (setting [3]); under 7 µg/mL in assay [1] (BHI broth, overnight 37° C.); under 7 µg/mL in assay [2] (setting [4]).
With `Cn1cc(-c2cc(C(=O)NCCN)c3cc(C#CCNCCc4ccc(Cl)cc4)ccc3n2)c2cc(Br)ccc21` [Example 400], the MIC (in the assay on Streptococcus pneumoniae (setting [5]); in assay [1] (setting [6]); in assay [2] (setting [6])) was under 7 µg/mL each time.
Consider `Cn1cc(-c2cc(C(=O)NCCN)c3cc(C#CCNCC4CCCCC4)ccc3n2)c2cc(Br)ccc21` [Example 401], for which the MIC (in the assay on Streptococcus pneumoniae (setting [5]); in assay [1] (setting [6]); in assay [2] (setting [6])) was under 7 µg/mL each time.
As for `CN(C)CCNCC#Cc1ccc2nc(-c3cn(C)c4ccc(Br)cc34)cc(C(=O)NCCN)c2c1` [Example 402], the MIC (in the assay on Streptococcus pneumoniae (setting [5]); in assay [1] (setting [6]); in assay [2] (setting [6])) was under 7 µg/mL each time.
Turning to `Cn1cc(-c2cc(C(=O)NCCN)c3cc(C#CCN4CCCC4)ccc3n2)c2cc(Br)ccc21` [Example 403], the MIC (with Streptococcus pneumoniae (setting [5]); in assay [1] (setting [6]); in assay [2] (setting [6])) was under 7 µg/mL in each case.
Turning to `Cn1cc(-c2cc(C(=O)NCCN)c3cc(C#CCN4CCc5ccccc5C4)ccc3n2)c2cc(Br)ccc21` [Example 404], the MIC (in the assay on Streptococcus pneumoniae (setting [5]); in assay [1] (setting [6]); in assay [2] (setting [6])) was under 7 µg/mL each time.
Turning to `CN1CCN(CC#Cc2ccc3nc(-c4cn(C)c5ccc(Br)cc45)cc(C(=O)NCCN)c3c2)CC1` [Example 405], the MIC (in the assay with Streptococcus pneumoniae (setting [5]); in assay [1] (setting [6]); in assay [2] (setting [6])) was under 25 µg/mL in each case.
`Cn1cc(-c2cc(C(=O)NCCN)c3cc(C#CCN4CC=CC4)ccc3n2)c2cc(Br)ccc21` [Example 406]: the MIC (in the assay on Streptococcus pneumoniae (setting [5]); in assay [1] (setting [6]); in assay [2] (setting [6])) was under 7 µg/mL each time.
In the case of `CN(CC#Cc1ccc2nc(-c3cn(C)c4ccc(Br)cc34)cc(C(=O)NCCN)c2c1)C1CCCCC1` [Example 407], the MIC (in the assay with Streptococcus pneumoniae (setting [5]); in assay [1] (setting [6]); in assay [2] (setting [6])) was under 7 µg/mL throughout.
On to `CC(C)N(CC#Cc1ccc2nc(-c3cn(C)c4ccc(Br)cc34)cc(C(=O)NCCN)c2c1)C(C)C` [Example 408], for which the minimal inhibitory concentration (MIC) (with Streptococcus pneumoniae (setting [5]); in assay [1] (setting [6]); in assay [2] (setting [6])) was under 7 µg/mL each time.
For `Cc1cccc2ccc(-c3c[nH]c4ccc(C#N)cc34)nc12` [Example 409], the MIC (in the assay with Streptococcus pneumoniae (setting [5]); in assay [1] (setting [6]); in assay [2] (setting [6])) was over 25 µg/mL in each case.
For `Cc1cccc2ccc(-c3c[nH]c4cc(Cl)ccc34)nc12` [Example 410], the values for the MIC (with Streptococcus pneumoniae (setting [5]); in assay [1] (setting [6]); in assay [2] (setting [6])) were under 25 µg/mL, under 25 µg/mL and over 25 µg/mL, respectively.
As for `Cc1ccc2[nH]cc(-c3ccc4cccc(C)c4n3)c2c1` [Example 411], the MIC (in the assay with Streptococcus pneumoniae (setting [5]); in assay [1] (setting [6]); in assay [2] (setting [6])) was over 25 µg/mL in each case.
In the case of `COc1ccc2nc(-c3c[nH]c4ccc(Br)cc34)ccc2c1` [Example 412], the MIC with Streptococcus pneumoniae (setting [5]) is over 25 µg/mL; in assay [1] (setting [6]), under 7 µg/mL; in assay [2] (setting [6]), over 25 µg/mL.
Consider `COc1ccc2nc(-c3c[nH]c4cc(F)ccc34)ccc2c1` [Example 413], for which the MIC (with Streptococcus pneumoniae (setting [5]); in assay [1] (setting [6]); in assay [2] (setting [6])) was over 25 µg/mL in each case.
For `COc1ccc2nc(-c3c[nH]c4cc(Cl)ccc34)ccc2c1` [Example 414], the MIC (with Streptococcus pneumoniae (setting [5]); in assay [1] (setting [6]); in assay [2] (setting [6])) was over 25 µg/mL in each case.
For `COc1ccc2nc(-c3c[nH]c4ccc(C)cc34)ccc2c1` [Example 415], the minimal inhibitory concentration (MIC) was over 25 µg/mL in the assay on Streptococcus pneumoniae (setting [5]), under 7 µg/mL in assay [1] (setting [6]) and over 25 µg/mL in assay [2] (setting [6]).
For `COc1ccc2nc(-c3c[nH]c4ccc(Cl)cc34)ccc2c1` [Example 416], the MIC in the assay with Streptococcus pneumoniae (setting [5]) is under 7 µg/mL; in assay [1] (setting [6]), under 7 µg/mL; in assay [2] (setting [6]) it was over 25 µg/mL.
Regarding `C[Si](C)(C)CCOC(=O)n1cc(-c2nc3ccc(Cl)cc3c3c2CCO3)c2cc(Br)ccc21` [Example 421], the MIC (with Streptococcus pneumoniae (16 h); in assay [1] (16 h); in assay [2] (16 h)) was over 25 µg/mL throughout.
With `Cc1cccc2ccc(-c3c[nH]c4ccc(Br)cc34)nc12` [Example 422], the MIC (in the assay with Streptococcus pneumoniae (setting [5]); in assay [1] (setting [6]); in assay [2] (setting [6])) was over 25 µg/mL in each case.
Regarding `Cc1cccc2ccc(-c3c[nH]c4cc(F)ccc34)nc12` [Example 423], the MIC (with Streptococcus pneumoniae (setting [5]); in assay [1] (setting [6]); in assay [2] (setting [6])) was over 25 µg/mL in each case.
As to `COc1ccc2[nH]c(C)c(-c3ccc4cccc(C)c4n3)c2c1` [Example 424], the MIC with Streptococcus pneumoniae (setting [5]) is under 25 µg/mL; in assay [1] (setting [6]), under 25 µg/mL; in assay [2] (setting [6]) it was over 25 µg/mL.
For the compound `Cc1[nH]c2ccc(Cl)cc2c1-c1ccc2cccc(C)c2n1` [Example 425], the MIC (in the assay on Streptococcus pneumoniae (setting [5]); in assay [1] (setting [6]); in assay [2] (setting [6])) was under 7 µg/mL in each case.
Take `Cc1ccc2[nH]c(C)c(-c3ccc4cccc(C)c4n3)c2c1` [Example 426]: the MIC is under 25 µg/mL with Streptococcus pneumoniae (setting [5]), under 25 µg/mL in assay [1] (setting [6]) and over 25 µg/mL in assay [2] (setting [6]).
Turning to `Cc1cccc2ccc(-c3c[nH]c4ccc(Cl)cc34)nc12` [Example 427], the MIC (with Streptococcus pneumoniae (setting [5]); in assay [1] (setting [6]); in assay [2] (setting [6])) was over 25 µg/mL in each case.
As for `COc1ccc2nc(-c3c(C)[nH]c4ccc(OC)cc34)ccc2c1` [Example 428], the minimal inhibitory concentration (MIC) (in the assay on Streptococcus pneumoniae (setting [5]); in assay [1] (setting [6]); in assay [2] (setting [6])) was over 25 µg/mL in each case.
As for `COc1ccc2nc(-c3c(C)[nH]c4ccc(Cl)cc34)ccc2c1` [Example 429], the MIC with Streptococcus pneumoniae (setting [5]) was under 7 µg/mL; in assay [1] (setting [6]) it was under 7 µg/mL; in assay [2] (setting [6]), over 25 µg/mL.
As to `COc1ccc2nc(-c3c[nH]c4ccc(OC)cc34)ccc2c1` [Example 430], the MIC with Streptococcus pneumoniae (setting [5]) was under 25 µg/mL; in assay [1] (setting [6]), under 25 µg/mL; in assay [2] (setting [6]) it was over 25 µg/mL.
For `COc1ccc2nc(-c3c(C)[nH]c4ccc(C)cc34)ccc2c1` [Example 431], the MIC (in the assay on Streptococcus pneumoniae (setting [5]); in assay [1] (setting [6]); in assay [2] (setting [6])) was over 25 µg/mL each time.
On to `Cc1ccc2nc(-c3c[nH]c4ccc(Br)cc34)ccc2c1` [Example 432], for which the MIC was under 7 µg/mL in the assay with Streptococcus pneumoniae (setting [5]), under 7 µg/mL in assay [1] (setting [6]) and over 25 µg/mL in assay [2] (setting [6]).
